According to US20240010685A1, “RNA SENSORS AND USES THEREOF” (YISSUM RESEARCH DEVELOPMENT COMPANY OF THE HEBREW …, priority 2020, published 2024):
“And” between values parts separate entries of the source, which are not always exact repeats. Identical values can stand only once.

Tests used:
complementary RNA [1] = test: Tm of RNA:PNA duplexes (duplex stability); format: binding; set-up: ΔTm: unit not given here; conditions: for Tm: RNA:PNA duplex; for ΔTm: vs unmodified control FIT-PNA of the set (1 or 5)
Procedure: In addition, the enhancement upon duplex formation with complementary RNA observed for these FIT-PNAs (4 and 7) was quite dramatic; 47-fold for FIT-PNA 7 and 46-fold for FIT-PNA 4 (FIG. 1B). The effect of cpPNA monomers to duplex stability was assessed by measuring Tm for all RNA:PNA duplexes (Table 2). The stabilizing effect was smaller for FIT-PNA in comparison to that reported for cpPNA. It is believed that this is due to the close proximity of the modified bases to the bulkier BisQ surrogate base in comparison to natural bases. For all measurements an additional transition at 60° C. was observed.

complementary RNA [2] = test: photophysical properties of duplex cpFIT-PNAs with complementary RNA (fluorescence spectrometry); format: physicochemical; conditions: for BR (brightness) / εmax / λmax, abs / Φ (quantum yield, QY): duplex with complementary RNA; for Φ (quantum yield, QY): relative to Cresyl Violet, 3 μM FIT-PNA in PBS pH 7; for I/I0: fluorescence enhancement, duplex with complementary RNA vs single strand; for enhancement upon duplex formation with complementary RNA: [FIT-PNA]=3 μM, [RNA]=4.5 μM
Procedure: (A) set 1 showing fluorescence of FIT-PNA:RNA duplex for FIT-PNAs 1-4, (B) set 2 showing fluorescence of FIT-PNA:RNA duplex for FIT-PNAs 5-7 and, (C) enhanced fluorescence of bis-cpFIT-PNAs (4 and 7) after RNA hybridization. [FIT-PNA]=[cpFIT-PNA]=3 μM, [RNA]=4.5 μM.
Fluorescence spectra were recorded by using a Jasco FT-6500 spectrometer. Measurements were carried out in fluorescence quartz cuvettes (10 mm) at a 3 μM concentration of FIT-PNA in a PBS buffered solution (100 mM NaCl, 10 mM NaH2PO4, pH 7). Quantum yields were determined relative to Cresyl Violet in PBS^3. PNAs were hybridized to complementary RNA using a 1:1.5 mixture of PNA:RNA at 37° C. for 1-2 hr. Samples were excited at 575 nm and emission spectra were recorded at 585-800 nm.

[3] = system: BRAF V600E point mutation; test: fluorescence spectra of BRAF FIT-PNA with fully matched RNA (mutant) and mis-match RNA (WT); conditions: 1 μM PNA
Excerpt: The data points to the added value of introducing the PEG8 linker. Clearly, the addition of the PEG8 linker improves the signal for fully matched RNA without losing the discrimination for the SNP. The addition of cpPNAs on both sides of BisQ (Table 2) results in an increased fluorescence in signal with mutant RNA (FIG. 6), however, the signal for WT RNA (with mismatch) also increases. This leads to some loss of discrimination for this SNP.
FIGS. 5A-B depict the added value of the PEG8 linker. Fluorescence spectra of CLIP6 FIT-PNA (5A, right) and, CLIP6-PEG8-FIT-PNA (5B, left) with fully matched RNA (mutant) and mis-match RNA (WT).
FIG. 6 depicts the increase in fluorescence for BRAF FIT-PNA substituted with cp. Fluorescence spectra of CLIP6-PEG8-cpFIT-PNA (1 μM) with fully matched RNA (mutant, (1.5 μM)) and mis-match RNA (WT, (1.5 μM)). A two-fold increase in fluorescence is obtained in comparison to the non-modified FIT-PNA (CLIP6-PEG8-FIT-PNA). An 18-fold enhancement in fluorescence is observed for CLIP6-PEG8-cpFIT-PNA in duplex form (with complementary RNA) in comparison to single strand.

complementary RNA [4] = test: limit of detection (LOD) measurements, plate reader; conditions: overnight incubation at RT
Procedure: As used herein, the term “amount” made in reference to presence of an SOI in a sample, refers to a quantity of the SOI that is sufficient to interact with a conjugate of the invention to provide a measurable signal. This amount is in the low nM range as shown for FIT-PNA 7 (Table 2).
(§1) Fluorescence end points were recorded by using a Cytation 3 plate reader. Measurements were carried out in Greiner 96 well black plates with flat bottom, at 0.5 μM concentration in a PBS buffered solution (100 mM NaCl, 10 mM NaH2PO4, pH 7). FIT-PNAs were hybridized to complementary RNA using a 1:1.5 mixture of PNA:RNA at 37° C. for 1-2 hr or by allowing overnight incubation at RT (for limit of detection (LOD) measurements). Samples were excited at 575 nm and measured at 615 nm.

[5] = system: 11-mer RNAs with all three possible mismatches; test: mismatch sensitivity of cpFIT-PNAs, plate reader; format: binding
Procedure: Mismatch sensitivity was evaluated for single and doubly modified cpFIT-PNAs. Mismatch sensitivity for mono-substituted cpPNAs (cpFIT-PNAs 2, 3, and 6) are presented in FIGS. 3A-B. Double substituted cpFIT PNAs 4 and 7 were compared to FIT-PNA controls (1 and 5) and are presented in FIGS. 2A-B. 11-mer RNAs with all three possible mismatches were introduced either at 3′ (to the left of BisQ) or 5′ (to the right of BisQ) positions opposite to the nearby base to BisQ. One clear observation is that cpFIT-PNAs have significant selectivity for pyrimidine-pyrimidine mismatches (CC, TU, TC, CU where underlined base refers to PNA base) in comparison to FIT-PNA controls with the exception of the CU mismatch for cpFIT-PNA 4. For cpFIT-PNA 7, TC and TU mismatches are discriminated by a factor of 7.5 and 13.9-fold (vs. full matched RNA), respectively. This is around a 3 to 5-fold increase with respect to non-modified FIT-PNA 5.
(A) double cpFIT-PNA 4 compared to FIT-PNA 1 and (B) double cpFIT-PNA 7 compared to FIT-PNA 5. FIT-PNAs were annealed to all possible 11-mer RNAs and measured on a plate reader (λex=575 λnm, Em=619 nm, n=3). [FIT-PNA]=[cpFIT-PNA]=0.5 μM, [RNA]=0.75 μM.
FIGS. 3A-B provide mismatch sensitivity of single substituted cpFIT-PNAs. (A) cpFIT-PNA 2 and 3 and (B) cpFIT-PNA 6. FIT-PNAs (0.5 μM) were annealed to all possible 11-mer RNAs (0.75 μM) and measured on a plate reader (λex=575 nm, λem=619 nm, n=3).
as §1

CCAT1 = test: fluorescence of CCAT1 FIT-PNA with RNA; conditions: [RNA]=1.5 μM and [FIT-PNA]=1 μM
Excerpt: Methylating the N-7 position of Guanosine base of a PNA monomer (G+ PNA monomer) results in an improvement in the hybridization to complementary DNA whilst avoiding PNA:PNA inter- and intra-duplex formation. As enhancement of FIT-PNA fluorescence depends on the ratio between ss/ds forms (PNA/PNA:RNA), lowering the background fluorescence of ssPNA should result in greater sensitivity (i.e. increased fluorescence enhancement). In the ss form, the FIT-PNA has low background fluorescence due to […] interactions between the aromatic BisQ and adjacent aromatic PNA monomers (especially purines: G and A). As BisQ has a delocalized positive charge (from nitrogen to nitrogen), the introduction of an adjacent positive charge on G or A causes electrostatic repulsion between BisQ and G+/A+ resulting in reduced background fluorescence. […] Data points to both a decrease in signal background of ssFIT-PNA and to an increase in fluorescence in duplex form (FIT-PNA:RNA) in comparison to non-modified CCAT1 FIT-PNA (FIG. 7). […]
In some embodiments, the modified or charged bases, G^+ and A^+, may be provided with a cp group positioned in their vicinity or as a cpG^+or cpA^+ monomer, in similarity to cpBisQ (Scheme 4). […] Data points to an increase in fluorescence in duplex form (FIT-PNA:RNA) in comparison to non-modified CCAT1 FIT-PNA as well as G+ and cpG modified CCAT1 FIT-PNA sequences (FIG. 8). […]

Substance | Tm (complementary RNA [1]) [°C] | BR (brightness) (complementary RNA [2]) | εmax (complementary RNA [2]) [mM⁻¹ cm⁻¹] | λmax, abs (complementary RNA [2]) [nm] | Φ (quantum yield, QY) (complementary RNA [2]) | I/I0 (complementary RNA [2]) | ΔTm (complementary RNA [1]) | enhancement in fluorescence in duplex form (with complementary RNA) in comparison to single strand ([3]; 1.5 μM RNA) [fold] | increase in fluorescence in comparison to the non-modified FIT-PNA (CLIP6-PEG8-FIT-PNA) ([3]; 1.5 μM fully matched RNA (mutant)) | enhancement upon duplex formation with complementary RNA (complementary RNA [2]) [fold] | amount of SOI sufficient to provide a measurable signal (complementary RNA [4]) | increase in TC/TU mismatch discrimination with respect to non-modified FIT-PNA 5 [5] [fold] | TC mismatch discrimination vs. full matched RNA ([5]; 0.5 μM FIT-PNA, 0.75 μM RNA) [fold] | TU mismatch discrimination vs. full matched RNA ([5]; 0.5 μM FIT-PNA, 0.75 μM RNA) [fold] | increase in fluorescence (CCAT1) [fold]
^3′(4)KD-ATACA-T-BisQ-C-AAC-^5′ [FIT-PNA 5, reference compound] | 51.8 | 16.5 mM⁻¹ cm⁻¹ | 82.3 | 587 | 0.20 | 24 |  |  |  |  |  |  |  |  | 
^3′(4)KD-ATA-C-BisQ-TACAAC-^5′ [FIT-PNA 1, reference compound] | 50.2 | 15 mM⁻¹ cm⁻¹ and 15.0 mM⁻¹ cm⁻¹ | 83.2 | 588 | 0.18 | 12 |  |  |  |  |  |  |  |  | 
^3′(4)KD-ATA-cpT-BisQ-T-ACAAC-^5′ [FIT-PNA 3] | 53.7 | 25.7 mM⁻¹ cm⁻¹ | 95.2 | 589 | 0.27 | 12 | (+3.5) |  |  |  |  |  |  |  | 
GATTcpT-BisQ-TCTGTAGCTAC-PEG8-CLIP6 [CLIP6-PEG8-cpFIT-PNA] |  |  |  |  |  |  |  | 18 | two-fold |  |  |  |  |  | 
^3′(4)KD-ATACA-cpT-BisQ-cpC-AAC-^5′ [FIT-PNA 7] | 52.9 | 35.3 mM⁻¹ cm⁻¹ | 90.6 | 586 | 0.39 | 47 | (+1.1) |  |  | 47 | low nM range | 3 to 5 | 7.5 | 13.9 | 
^3′(4)KD-ATA-C-BisQ-cpT-ACAAC-5′ [FIT-PNA 2] | 53.7 | 16.4 mM⁻¹ cm⁻¹ | 91.0 | 590 | 0.18 | 15 | (+3.5) |  |  |  |  |  |  |  | 
^3′(4)KD-ATA-cpC-BisQ-cpT-ACAAC-5′ [FIT-PNA 4] | 54.7 | 28.3 mM⁻¹ cm⁻¹ | 85.8 | 590 | 0.33 | 46 | (+4.5) |  |  | 46 |  |  |  |  | 
CCAACCT-BisQ-G^+TAAGTG-dK4 [G^+ modified CCAT1 FIT-PNA] |  |  |  |  |  |  |  |  |  |  |  |  |  |  | 7
CCAACCT-BisQ-cpG^+TAAGTG-dK4 [cpG^+ modified CCAT1 FIT-PNA] |  |  |  |  |  |  |  |  |  |  |  |  |  |  | 10
^3′(4)KD-ATACA-cpT-BisQ-C-AAC-^5′ [FIT-PNA 6] | 53 | 29.1 mM⁻¹ cm⁻¹ | 85.7 | 586 | 0.34 | 46 | (+1.2) |  |  |  |  |  |  |  | 
